Broadly, the EC50 is the concentration at which the effect is half-maximal.

The results in this text go back to ChEMBL document CHEMBL3745643, “Recent Advances in the Discovery of Norovirus Therapeutics” (J Med Chem, 2015).

The nature of test [1]: Inhibition of Norovirus RNA dependent RNA polymerase by spectrophotometry.
The subject of test [2] is Norovirus. Nature of the test: Antiviral activity against Norovirus infected in HuH7 cells assessed as decrease in viral RNA level after 72 hrs by qRT-PCR analysis. Format: functional, cell-based. The conditions noted are these: Huh-7, 72 h.
Test [3] has as its system Norovirus. Nature of the test: Antiviral activity against Norovirus infected in HG23 cells assessed as decrease in viral RNA level by qRT-PCR analysis. The test is classed as functional, cell-based.
A short description of test [4]: Inhibition of recombinant His-tagged Norovirus 3C-like protease for 45 mins followed by addition of 30 uM EDANS-EPDFHLQGPEDLAK-Dabcyl substrate by FRET assay.
Test [5] in a line: Inhibition of Norovirus 3C-like protease by FRET assay.

Molecules are shown by their SMILES. Peptide text beside a SMILES is read from it. * marks the point of attachment. Pyrrolidide = C1CCN(*)C1; Cbz = O=C(OCc1ccccc1)*

As to `Cc1ccc(C(=O)Nc2ccc(S(=O)(=O)O)c3cccc(S(=O)(=O)O)c23)cc1NC(=O)c1cccc(NC(=O)Nc2cccc(C(=O)Nc3cc(C(=O)Nc4ccc(S(=O)(=O)O)c5cccc(S(=O)(=O)O)c45)ccc3C)c2)c1`, the EC50 in test [1] was found to be 28 nM.
Consider `Cc1nc(-c2ccccc2)sc1C(=O)Nc1sc2c(c1C#N)CCC2`, for which the 50% effective concentration (EC50) in the test with Norovirus [2] turned out to be 30.1 µM.
Regarding `C[C@@]1(O)[C@H](O)[C@@H](CO)O[C@H]1n1ccc(N)nc1=O`, in the test on Norovirus [3], the EC50 is 18 µM.
Turning to `CC(C)C[C@H](NC(=O)OCc1ccccc1)C(=O)N[C@@H](Cc1ccccc1)C(=O)N[C@H](C=O)CCC(=O)N1CCCC1` (Cbz-Leu-Phe-Glu(Pyrrolidide)-aldehyde), the concentration giving a half-maximal response (EC50) in test [4] was found to be 75 nM.
Consider `CCOC(=O)/C=C/[C@H](C[C@@H]1CCNC1=O)NC(=O)[C@@H](CC(=O)[C@@H](NC(=O)c1cc(C)on1)C(C)C)Cc1ccc(F)cc1` [RUPINTRIVIR], for which the EC50 in test [5] was determined as 23 nM.
In turn, `Cc1ccc(C(=O)Nc2ccc(S(=O)(=O)O)c3cc(S(=O)(=O)O)cc(S(=O)(=O)O)c23)cc1NC(=O)c1cccc(NC(=O)Nc2cccc(C(=O)Nc3cc(C(=O)Nc4ccc(S(=O)(=O)O)c5cc(S(=O)(=O)O)cc(S(=O)(=O)O)c45)ccc3C)c2)c1` [SURAMIN HEXASODIUM] showed an EC50 in test [1] of 27 nM.
